Source: article PMC8328003 (ACS chemical neuroscience, 2021)
Where “and” joins values, the source holds several entries; their conditions need not be identical. Identical values can stand only once. Like-named read-outs stand apart in the source and are kept apart here.

How the values were obtained:
[1] = target: mouse kappa opioid receptor (mKOR) (Mus musculus, UniProt P33534); assay: Competition binding against 125I-IBNtxA, CHO cell membranes
C57BL/6J mice [2] = assay: 55 °C warm-water tail-withdrawal assay; assay type: in vivo, mouse; conditions: i.c.v.; for receptor dependence of antinociception: MOR KO / KOR KO mice versus WT
hDOR [3] = target: T1, hDOR (Homo sapiens, UniProt P41143); assay: BRET Gi-1 activation, HEK293T cells; assay type: cell-based
[4] = target: human kappa opioid receptor (hKOR) (Homo sapiens, UniProt P41145); assay: BRET Gi-1 activation, HEK293T cells; assay type: cell-based; conditions: for pEC50 ± SEM Gi-1 activation hKOR / EC50: BRET; for Emax% ± SEM Gi-1 activation hKOR: normalized to U50,488H; for EC50: read-out: EC50 Gi-1 activation hKOR
[5] = target: human mu opioid receptor (hMOR) (Homo sapiens, UniProt P35372); assay: cell-based; assay type: cell-based
hKOR [6] = target: T2, hKOR (Homo sapiens, UniProt P41145); assay: BRET βarrestin-2 recruitment, HEK293T cells; assay type: cell-based; conditions: for pEC50 ± SEM βarrestin-2 recruitment hKOR / EC50: BRET; for Emax% ± SEM βarrestin-2 recruitment hKOR: normalized to U50,488H; for EC50: read-out: EC50 βarrestin-2 recruitment hKOR
C57BL/6J mice [7] = assay: CLAMS locomotor activity; assay type: in vivo, mouse; conditions: 100 nmol, i.c.v., 180 min, versus vehicle
mKOR = mKOR (Mus musculus, UniProt P33534); assay: [35S]GTPγS functional assay, CHO membranes; assay type: biochemical; conditions: for mKOR Emax: relative to U50,488H at 1000 nM
mDOR [8] = target: T3, mDOR (Mus musculus, UniProt P32300); assay: [35S]GTPγS functional assay, CHO membranes; assay type: biochemical; conditions: relative to DPDPE at 1000 nM
[9] = target: mouse mu opioid receptor (mMOR) (Mus musculus, UniProt P42866); assay: Competition binding against 125I-IBNtxA, CHO cell membranes; conditions: 125I-IBNtxA (0.1 nM), CHO membranes
mMOR = mMOR (Mus musculus, UniProt P42866); assay: [35S]GTPγS functional assay, CHO membranes; assay type: biochemical; conditions: for mMOR Emax: relative to DAMGO at 1000 nM
hMOR [10] = target: T4, hMOR (Homo sapiens, UniProt P35372); assay: BRET βarrestin-2 recruitment, HEK293T cells; assay type: cell-based
C57BL/6J mice [11] = assay: CLAMS breathing rate; assay type: in vivo, mouse; conditions: 100 nmol, i.c.v., 180 min, versus vehicle
hMOR [12] = conditions: read-out: binding affinity at hMOR; cited from earlier work
hDOR [13] = target: T1, hDOR; assay: BRET βarrestin-2 recruitment, HEK293T cells; assay type: cell-based; conditions: for Emax% ± SEM βarrestin-2 recruitment hDOR: normalized to DPDPE
mDOR [14] = target: T3, mDOR; assay: Competition binding against 125I-IBNtxA, CHO cell membranes
hDAT = hDAT (Homo sapiens, UniProt Q01959); assay: NIMH-PDSP radioligand binding; conditions: read-out: affinity Ki hDAT
hKOR [15] = target: T2, hKOR; assay: NIMH-PDSP radioligand binding; conditions: read-out: affinity Ki hKOR
hα2A = target: T5, hα2A (Homo sapiens, UniProt P08913); assay: NIMH-PDSP radioligand binding; conditions: read-out: affinity Ki hα2A
T5 sequence (P08913 1-465): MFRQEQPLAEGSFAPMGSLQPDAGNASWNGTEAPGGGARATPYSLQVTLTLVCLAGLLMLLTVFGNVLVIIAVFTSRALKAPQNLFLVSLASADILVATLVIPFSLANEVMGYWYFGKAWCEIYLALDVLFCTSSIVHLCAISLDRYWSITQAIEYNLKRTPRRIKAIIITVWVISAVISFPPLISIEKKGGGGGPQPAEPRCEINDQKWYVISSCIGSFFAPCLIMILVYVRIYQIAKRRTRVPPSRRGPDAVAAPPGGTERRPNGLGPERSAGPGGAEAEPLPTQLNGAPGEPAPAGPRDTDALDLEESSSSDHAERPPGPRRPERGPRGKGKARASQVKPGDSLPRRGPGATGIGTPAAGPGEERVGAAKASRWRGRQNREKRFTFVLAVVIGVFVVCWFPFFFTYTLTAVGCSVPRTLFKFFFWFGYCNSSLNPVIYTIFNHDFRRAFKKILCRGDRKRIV

hH1 = hH1 (Homo sapiens, UniProt P35367); assay: NIMH-PDSP radioligand binding; conditions: read-out: affinity Ki hH1
hMOR [16] = target: T4, hMOR; assay type: cell-based
hMOR [17] = target: T4, hMOR; assay: NIMH-PDSP radioligand binding; conditions: read-out: affinity Ki hMOR
hSERT = hSERT (Homo sapiens, UniProt P31645); assay: NIMH-PDSP radioligand binding; conditions: read-out: affinity Ki hSERT
hMOR [18] = target: T4, hMOR; assay type: cell-based; remark: listed apart in the source
hNET = hNET (Homo sapiens, UniProt P23975); assay: NIMH-PDSP radioligand binding; conditions: read-out: affinity Ki hNET

CC[C@@H]1CN2CC[C@@]3(C(=O)Nc4ccccc43)[C@@H]2C[C@@H]1/C(=C\OC)C(=O)OC [corynoxine]
Ki ([1]; affinity (Ki) mKOR, 125I-IBNtxA (0.1 nM)): 3080 ± 1730 nM
receptor dependence of antinociception (C57BL/6J mice [2]): MOR dependent
antinociception ED50 (and 95% C.I.) (C57BL/6J mice [2]; WT C57BL/6J mice, from peak effect): 3.43 (0.53–6.41) nmol
Emax (hDOR [3]; HEK-293T, read-out: Emax% ± SEM Gi-1 activation hDOR): < 20%
Emax ([4]; HEK-293T, read-out: Emax% ± SEM Gi-1 activation hKOR): < 20%
EC50 [5]: 1630 nM
fold less potent than DAMGO, Gi-1 hMOR [5]: 58 fold
Emax ([5]; HEK-293T, read-out: Emax% ± SEM Gi-1 activation hMOR): 96.5 ± 4.69%
Emax (hKOR [6]; HEK-293T, read-out: Emax% ± SEM βarrestin-2 recruitment hKOR): < 20%
locomotor effect (C57BL/6J mice [7]): did not produce significant hyperlocomotion
mKOR EC50 (mKOR; [35S]GTPγS): no activity
mKOR Emax (mKOR): no activity
mDOR Emax (mDOR [8]): no activity
Ki ([9]; affinity (Ki) mMOR): 140 nM and 141 nM
EC50 (mMOR): 203 ± 4.4 nM
Emax at 1 µM (mMOR; read-out: mMOR Emax, relative to DAMGO at 1000 nM): 136%
mMOR Emax (mMOR): 136.4 ± 3.3%
Emax (hMOR [10]; HEK-293T, read-out: Emax% ± SEM βarrestin-2 recruitment hMOR): < 20%
effect on breath rate (C57BL/6J mice [11]): no depression of breath rate
effect on breath rate (C57BL/6J mice [11]; listed as Corynoxine): increase in breath rates
Ki (hMOR [12]): 16.4 nM
Emax (hDOR [13]; HEK-293T, read-out: Emax% ± SEM βarrestin-2 recruitment hDOR): < 20%
Ki (mDOR [14]; affinity (Ki) mDOR, 125I-IBNtxA (0.1 nM)): 1270 ± 226 nM

C=C[C@H]1CN2CCc3c([nH]c4cccc(OC)c34)[C@H]2C[C@@H]1/C(=C\OC)C(=O)OC [isopaynantheine]
Ki ([1]; read-out: affinity (Ki) mKOR, 125I-IBNtxA (0.1 nM)): 325 nM and 326 nM
Ki (hDAT): 5070 nM
receptor dependence of antinociception (C57BL/6J mice [2]): MOR independent and KOR dependent
Ki (hKOR [15]): 27 nM
Ki (hα2A): 2150 nM
Emax% ± SEM Gi-1 activation hDOR (hDOR [3]; normalized to control agonist (DPDPE; SNC80 in Figure 6G)): < 20%
pEC50 ± SEM Gi-1 activation hKOR [4]: 6.25 ± 0.066
Emax% ± SEM Gi-1 activation hKOR [4]: 80%
Emax% ± SEM Gi-1 activation hKOR ([4]; listed as Isopaynantheine): 80.5 ± 2.9%
EC50 [4]: 560 nM
Emax% ± SEM Gi-1 activation hMOR [5]: < 20%
Ki (hH1): 206 nM
Emax% ± SEM βarrestin-2 antagonism at MOR (hMOR [16]): 106 ± 8.67%
pEC50 ± SEM βarrestin-2 recruitment hKOR (hKOR [6]): 6.22 ± 0.43
Emax% ± SEM βarrestin-2 recruitment hKOR (hKOR [6]): < 20%
EC50 (hKOR [6]): 599 nM
EC50 (mKOR; read-out: mKOR EC50, [35S]GTPγS): 282 ± 18 nM
mKOR Emax (mKOR): 93.5 ± 5%
mDOR Emax (mDOR [8]): no activity
Ki ([9]; read-out: affinity (Ki) mMOR): 91.8 ± 5.8 nM
EC50 (mMOR; read-out: mMOR EC50, [35S]GTPγS): 192 ± 5.8 nM
mMOR Emax (mMOR): 50 ± 5%
Emax% ± SEM βarrestin-2 recruitment hMOR (hMOR [10]; normalized to DAMGO): < 20%
Ki (hMOR [17]): 122 nM
Ki (hSERT): 5110 nM
Emax% ± SEM βarrestin-2 recruitment hDOR (hDOR [13]): < 20%
Ki (mDOR [14]; read-out: affinity (Ki) mDOR, 125I-IBNtxA (0.1 nM)): 823 ± 127 nM
Emax% ± SEM Gi-1 antagonism at MOR (hMOR [18]): 156.91 ± 13.49%

CC[C@H]1CN2CCc3c([nH]c4cccc(OC)c34)[C@H]2C[C@@H]1/C(=C\OC)C(=O)OC [mitraciliatine]
receptor dependence of antinociception (C57BL/6J mice [2]): MOR dependent and, surprisingly, independent of KOR
maximal antinociception (ceiling effect, % MPE) (C57BL/6J mice [2]; WT mice, mitraciliatine at 100 nmol): 67%
Ki (hKOR [15]): 73 nM
Ki (hα2A): 2150 nM
pEC50 ± SEM Gi-1 activation hKOR [4]: 6.57 ± 0.06
Emax% ± SEM Gi-1 activation hKOR [4]: 114.32 ± 2.42%
EC50 [4]: 269 nM
pEC50 ± SEM βarrestin-2 recruitment hKOR (hKOR [6]): 6.42 ± 0.06
Emax% ± SEM βarrestin-2 recruitment hKOR (hKOR [6]): 104%
Emax% ± SEM βarrestin-2 recruitment hKOR (hKOR [6]; listed as Mitraciliatine): 104.13 ± 2.57%
EC50 (hKOR [6]): 383 nM
locomotor effect (C57BL/6J mice [7]): no significant hyperlocomotion
effect on breath rate (C57BL/6J mice [11]): no respiratory depression
effect on breath rate (C57BL/6J mice [11]; listed as Mitraciliatine): increase in breath rates
Emax% ± SEM βarrestin-2 recruitment hDOR (hDOR [13]): < 20%
Ki (hNET): 6600 nM
